Here are results for 22 compounds from patent US20070213339A1 (Bayer Pharmaceuticals Corporation, priority 2004, published 2007).

For the assay, the system named is Colo205 human colon carcinoma cell line. Put plainly: In vitro tumor cell proliferation assay (MTS, CellTiter 96 Aqueous One Solution). The format is cell-based. To be noted: COLO 205, Colo205 cells, 72 hours compound exposure, MTS absorbance at 490 nm, read-out: IC50 (concentration of test compound required to inhibit proliferation of 50% of the cells). The method, then:
In Vitro Tumor Cell Proliferation Assay
The adherent H460 human non-small cell lung carcinoma and Colo205 human colon carcinoma cell lines were purchased from the American Type and Culture Collection (ATCC, Manassas, Va.) and maintained in RPMI-1640 growth media supplemented with 10% heat inactivated fetal bovine serum (Gibco, Invitrogen Corp. Grand Island, N.Y.). At 37° C. in a humidified atmosphere of 5% CO2.
The CellTiter 960 Aqueous One Solution kit, MTS, (Promega, Madison, Wis.) was used to measure proliferation of tumor cell lines in vitro. This method monitors the bioreduction of a tetrazolium dye as a measure of cell viability. On Day 0, exponentially growing cells were trypsinized, resuspended in RPMI-1640 growth media supplemented with 10% FCS, 100 u/ml of penicillin G and 100 ug/ml of streptomycin sulfate, and seeded at 2000 cells per well into 96 well microtiter plates. Cells were incubated overnight in a humidified atmosphere of 5% CO2 at 37° C. On Day 1, serial dilutions of compounds were prepared at 2× the finial assay concentration. One hundred microliters of 2× solution was added to test wells in duplicate and control wells received no test compound. The final drug concentration ranged from 0 to 10-20 um in a 5 point dose-response curve. Cells were incubated in the presence of test compounds in a humidified atmosphere of 5% CO2 at 37° C. for 72 hours. After 72 hours of compound exposure, 40 ul of Promega CellTiter 960 Aqueous One Solution was added to each well and absorbance at 490 n-M was measured using a multi-well plate reader. Percent inhibition of proliferation was calculated using the following formula: 100×(1−Absorbancetreated−Background/(Absorbancecontrol−Background)
Absorbancetreated=absorbance at 490 nm in test wells, cells with test compound
Absorbancecontrol=absorbance at 490 nm in control wells, cells with no test compound
Background=absorbance 490 nm in wells containing media and no cells
The concentration of test compound required to inhibit proliferation of 50% of the cells (IC50) was determined by linear regression analysis.
Representative compounds of the invention were tested in the above-described Colo205 human colon carcinoma cell line in vitro assay and found to inhibit human colon carcinoma cell proliferation, and are summarized as follows: […]
Regarding `CN(C)CCc1ccc(-n2cc(C(=O)O)c(=O)c3cc(F)c(N4CCN(c5ncccn5)CC4)c(Cl)c32)cc1` [Example 71, 8-chloro-1-{4-[2-(dimethylamino)ethyl]phenyl}-6-fluoro-4-oxo-7-(4-pyrimidin-2-ylpiperazin-1-yl)-1,4-dihydroquinoline-3-carboxylic acid], the IC50 lay in the range of 2000 to 20000 nM.

Turning to `CCN(CC)Cc1ccc(-n2cc(C(=O)O)c(=O)c3cc(F)c(N4CCN(c5cccc(Cl)c5)CC4)c(OC)c32)cc1` [Example 115, 7-[4-(3-chlorophenyl)piperazin-1-yl]-1-{4-[(diethylamino)methyl]phenyl}-6-fluoro-8-methoxy-4-oxo-1,4-dihydroquinoline-3-carboxylic acid], the IC50 was < 500 nM.

As to `N#Cc1ccccc1N1CCN(c2c(F)cc3c(=O)c(C(=O)O)cn(-c4ccc(CN5CC[C@H](O)C5)cc4)c3c2Cl)CC1` [Example 30, 8-chloro-7-[4-(2-cyanophenyl)piperazin-1-yl]-6-fluoro-1-(4-{[(3S)-3-hydroxypyrrolidin-1-yl]methyl}phenyl)-4-oxo-1,4-dihydroquinoline-3-carboxylic acid], the IC50 is < 500 nM.

As to `CON(C)Cc1ccc(-n2cc(C(=O)O)c(=O)c3cc(F)c(N4CCN(c5ccccc5C#N)CC4)c(Cl)c32)cc1` [Example 53, 8-chloro-7-[4-(2-cyanophenyl)piperazin-1-yl]-6-fluoro-1-(4-{[methoxy(methyl)amino]methyl}phenyl)-4-oxo-1,4-dihydroquinoline-3-carboxylic acid], the IC50 was 2000 to 20000 nM.

Take `CCN(CC)Cc1ccc(-n2cc(C(=O)O)c(=O)c3cc(F)c(N4CCN(c5cc(Cl)ccc5C)CC4)c(OC(F)(F)F)c32)cc1` [Example 134, 7-[4-(5-chloro-2-methylphenyl)piperazin-1-yl]-1-{4-[(diethylamino)methyl]phenyl}-6-fluoro-4-oxo-8-(trifluoromethoxy)-1,4-dihydroquinoline-3-carboxylic acid]: the IC50 was 500 to 2000 nM.

For `O=C(O)c1cn(-c2ccc(CN3CCCC3)cc2)c2c(OC(F)(F)F)c(N3CCN(c4cccc(Cl)c4)CC3)c(F)cc2c1=O` [Example 119, 7-[4-(3-chlorophenyl)piperazin-1-yl]-6-fluoro-4-oxo-1-[4-(pyrrolidin-1-ylmethyl)phenyl]-8-(trifluoromethoxy)-1,4-dihydroquinoline-3-carboxylic acid], the IC50 was < 500 nM.

As for `COC[C@H]1CCCN1Cc1ccc(-n2cc(C(=O)O)c(=O)c3cc(F)c(N4CCN(c5ccc(F)cc5)CC4)c(Cl)c32)cc1` [Example 23, 8-chloro-6-fluoro-7-[4-(4-fluorophenyl)-piperazin-1-yl]-1-(4-{[(2R)-2-(methoxymethyl)pyrrolidin-1-yl]methyl}phenyl)-4-oxo-1,4-dihydroquinoline-3-carboxylic acid], the IC50 was < 500 nM.

On to `COc1c(N2CCN(c3ccccc3C#N)CC2)c(F)cc2c(=O)c(C(=O)O)cn(-c3ccc(CN4CCCC4)cc3)c12` [Example 81, 7-[4-(2-cyanophenyl)piperazin-1-yl]-6-fluoro-8-methoxy-4-oxo-1-[4-(pyrrolidin-1-ylmethyl)phenyl]-1,4-dihydroquinoline-3-carboxylic acid], for which the IC50 was 500 to 2000 nM.

In the case of `COc1cc(CNC2CCC2)ccc1-n1cc(C(=O)O)c(=O)c2cc(F)c(N3CCN(c4ccc(F)cc4)CC3)c(Cl)c21` [Example 178, 8-chloro-1-(4-cyclobutylaminomethyl-2-methoxyphenyl)-6-fluoro-7-[4-(4-fluorophenyl)-piperazine-1-yl]-4-oxo-1,4-dihydroquinoline-3-carboxylic acid], the IC50 is < 500 nM.

As to `O=C(O)c1cn(-c2ccc(CN3CCCC3)cc2)c2c(OC(F)(F)F)c(N3CCN(c4ccc(F)cc4)CC3)c(F)cc2c1=O` [Example 121, 6-fluoro-7-[4-(4-fluorophenyl)piperazin-1-yl]-4-oxo-1-[4-(pyrrolidin-1-ylmethyl)phenyl]-8-(trifluoromethoxy)-1,4-dihydroquinoline-3-carboxylic acid], the IC50 was < 500 nM.

For `COC[C@@H]1CCCN1Cc1ccc(-n2cc(C(=O)O)c(=O)c3cc(F)c(N4CCN(c5ccccn5)CC4)c(Cl)c32)cc1` [Example 24, 8-chloro-6-fluoro-1-(4-{[(2S)-2-(methoxy-methyl)pyrrolidin-1-yl]methyl}phenyl)-4-oxo-7-(4-pyridin-2-ylpiperazin-1-yl)-1,4-dihydroquinoline-3-carboxylic acid], the IC50 is < 500 nM.

`Cc1ccc(N2CCN(c3c(F)cc4c(=O)c(C(=O)O)cn(-c5ccc(CN6CCCC6)cc5)c4c3OC(F)(F)Cl)CC2)c(C)c1` [Example 150, 8-[chloro(difluoro)methoxy]-7-[4-(2,4-dimethylphenyl)piperazin-1-yl]-6-fluoro-4-oxo-1-[4-(pyrrolidin-1-ylmethyl)phenyl]-1,4-dihydroquinoline-3-carboxylic acid]: the IC50 is 500 to 2000 nM.

In the case of `CCN(CC)Cc1ccc(-n2cc(C(=O)O)c(=O)c3cc(F)c(N4CCN(c5ccccc5Cl)CC4)c(OC)c32)cc1` [Example 109, 7-[4-(2-chlorophenyl)piperazin-1-yl]-1-{4-[(diethylamino)methyl]phenyl}-6-fluoro-8-methoxy-4-oxo-1,4-dihydroquinoline-3-carboxylic acid], the IC50 fell in the range of 500 to 2000 nM.

In the case of `CC1CCCN1Cc1ccc(-n2cc(C(=O)O)c(=O)c3cc(F)c(N4CCN(c5ccccn5)CC4)c(Cl)c32)cc1` (stereo not shown) [Example 17, 8-chloro-6-fluoro-1-{4-[(2-methylpyrrolidin-1-yl)methyl]phenyl}-4-oxo-7-(4-pyridin-2-ylpiperazin-1-yl)-1,4-dihydroquinoline-3-carboxylic acid], the IC50 is < 500 nM.

With `COc1c(N2CCN(c3ccc(F)cc3)CC2)c(F)cc2c(=O)c(C(=O)O)cn(-c3ccc(CN4CCCC4)cc3)c12` [Example 74, 6-fluoro-7-[4-(4-fluorophenyl)piperazin-1-yl]-8-methoxy-4-oxo-1-[4-(pyrrolidin-1-ylmethyl)phenyl]-1,4-dihydroquinoline-3-carboxylic acid], the IC50 is < 500 nM.

On to `O=C(O)c1cn(-c2ccc(CN3CCCC3)cc2)c2c(OC(F)(F)Cl)c(N3CCN(c4ccccc4)CC3)c(F)cc2c1=O` [Example 152, 8-[chloro(difluoro)methoxy]-6-fluoro-4-oxo-7-(4-phenylpiperazin-1-yl)-1-[4-(pyrrolidin-1-ylmethyl)phenyl]-1,4-dihydroquinoline-3-carboxylic acid], for which the IC50 is < 500 nM.

In the case of `N#Cc1ccccc1N1CCN(c2c(F)cc3c(=O)c(C(=O)O)cn(-c4ccc(CN5CCCC5)nc4)c3c2Cl)CC1` [Example 36, 8-chloro-7-[4-(2-cyanophenyl)piperazin-1-yl]-6-fluoro-4-oxo-1-[6-(pyrrolidin-1-ylmethyl)pyridin-3-yl]-1,4-dihydroquinoline-3-carboxylic acid], the IC50 lay in the range of 500 to 2000 nM.

`COc1c(N2CCN(c3ccccc3[N+](=O)[O-])CC2)c(F)cc2c(=O)c(C(=O)O)cn(-c3ccc(CN4CCCC4)cc3)c12` [Example 84, 6-fluoro-8-methoxy-7-[4-(2-nitrophenyl)-piperazin-1-yl]-4-oxo-1-[4-(pyrrolidin-1-ylmethyl)phenyl]-1,4-dihydroquinoline-3-carboxylic acid]: the IC50 lay within 500 to 2000 nM.

Take `N#Cc1cccnc1N1CCN(c2c(F)cc3c(=O)c(C(=O)O)cn(-c4ccc(CN5CCCC5)nc4)c3c2Cl)CC1` [Example 35, 8-chloro-7-[4-(3-cyanopyridin-2-yl)piperazin-1-yl]-6-fluoro-4-oxo-1-[6-(pyrrolidin-1-ylmethyl)pyridin-3-yl]-1,4-dihydroquinoline-3-carboxylic acid]: the IC50 was < 500 nM.

As to `O=C(O)c1cn(-c2cccc(CN3CCCCC3)c2)c2c(OC(F)(F)F)c(N3CCN(c4ccccc4F)CC3)c(F)cc2c1=O` [Example 144, 6-fluoro-7-[4-(2-fluorophenyl)piperazin-1-yl]-4-oxo-1-[3-(piperidin-1-ylmethyl)phenyl]-8-(trifluoromethoxy)-1,4-dihydroquinoline-3-carboxylic acid], the IC50 was in the range of 2000 to 20000 nM.

As for `CN(C)CCc1ccc(-n2cc(C(=O)O)c(=O)c3cc(F)c(N4CCN(c5ccccn5)CC4)c(Cl)c32)cc1` [Example 69, 8-chloro-1-{4-[2-(dimethylamino)ethyl]phenyl}-6-fluoro-4-oxo-7-(4-pyridin-2-ylpiperazin-1-yl)-1,4-dihydroquinoline-3-carboxylic acid], the IC50 was < 500 nM.

With `CCN(CC)Cc1ccc(-n2cc(C(=O)O)c(=O)c3cc(F)c(N4CCN(c5ncccc5C#N)CC4)c(OC(F)(F)Cl)c32)cc1` [Example 161, 8-[chloro(difluoro)methoxy]-7-[4-(3-cyanopyridin-2-yl)piperazin-1-yl]-1-{4-[(diethylamino)methyl]phenyl}-6-fluoro-4-oxo-1,4-dihydroquinoline-3-carboxylic acid], the IC50 is < 500 nM.
